# Assay results as given in patent US12662489B2 (Sitryx Therapeutics Limited, priority 2023, dated 2026).
# Assays:
# [1] = biological target: T1, MTHFD1 recombinant human enzyme (Homo sapiens, UniProt P11586); test: MTHFD1 inhibition assay (NAD(P)H-Glo luminescence); details: MTHFD1 IC50, recombinant human enzyme 200 nM, NADP, band
# T1 sequence (P11586 2-291 limits assumed): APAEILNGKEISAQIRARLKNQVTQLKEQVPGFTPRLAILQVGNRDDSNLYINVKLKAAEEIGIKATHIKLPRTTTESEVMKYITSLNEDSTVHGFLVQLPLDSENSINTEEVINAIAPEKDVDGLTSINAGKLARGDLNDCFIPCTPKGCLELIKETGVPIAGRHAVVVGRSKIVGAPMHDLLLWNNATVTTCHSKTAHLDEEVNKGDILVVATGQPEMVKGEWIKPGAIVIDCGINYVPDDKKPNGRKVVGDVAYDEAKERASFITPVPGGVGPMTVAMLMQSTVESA
# [2] = biological target: T2, MTHFD2 recombinant human enzyme (Homo sapiens, UniProt P13995); test: MTHFD2 inhibition assay (NAD(P)H-Glo luminescence); details: for MTHFD1/MTHFD2 IC50 ratio: selectivity of MTHFD2 inhibition over MTHFD1, band
# T2 sequence (P13995 36-350): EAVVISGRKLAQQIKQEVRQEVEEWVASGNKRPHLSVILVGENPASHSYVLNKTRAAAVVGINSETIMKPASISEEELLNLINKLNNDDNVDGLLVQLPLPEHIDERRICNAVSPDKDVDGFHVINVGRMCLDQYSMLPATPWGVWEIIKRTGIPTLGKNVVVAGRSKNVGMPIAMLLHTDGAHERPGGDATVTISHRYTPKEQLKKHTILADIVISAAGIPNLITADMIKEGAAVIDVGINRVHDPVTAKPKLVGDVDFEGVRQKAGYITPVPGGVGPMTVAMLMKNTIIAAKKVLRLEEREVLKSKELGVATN
# human CD4+ T cells = test: Human CD4+ T-cell proliferation assay (CFSE, CD3/28 beads); details: read-out: Proliferation IC50
Compound,IC50 [1] [nM],IC50 [2] [nM],MTHFD1/MTHFD2 IC50 ratio [2],IC50 (human CD4+ T cells) [nM]
"CCc1cc(N2CCN(C)[C@@H](COC)C2)c(C)c2oc(=O)c3c(c12)CCN(C(=O)c1cc(N(C)C)c(C(=O)NS(=O)(=O)N2CCCC2)cc1F)C3 [Example 245, (R)-2-(dimethylamino)-4-(10-ethyl-8-(3-(methoxymethyl)-4-methylpiperazin-1-yl)-7-methyl-5-oxo-1,3,4,5-tetrahydro-2H-chromeno[3,4-c]pyridine-3-carbonyl)-5-fluoro-N-(pyrrolidin-1-ylsulfonyl)benzamide]",1000 to 5000,1 to 10,J (>30),30 to 100
"CCOc1cc(C(=O)N2CCc3c(c(=O)oc4c(C)c(N5CCN(C)[C@@H](COC)C5)cc(C)c34)C2)c(F)cc1C(=O)NS(=O)(=O)N1C2CCC1COC2 [Example 221, N-((3-oxa-8-azabicyclo[3.2.1]octan-8-yl)sulfonyl)-2-ethoxy-5-fluoro-4-(8-((R)-3-(methoxymethyl)-4-methylpiperazin-1-yl)-7,10-dimethyl-5-oxo-1,3,4,5-tetrahydro-2H-chromeno[3,4-c]pyridine-3-carbonyl)benzamide]",100 to 1000,10 to 100,H (>9.0 to 30),30 to 100
"COC[C@H]1CN(c2cc(C)c3c4c(c(=O)oc3c2C)CN(C(=O)c2cc(N(C)C)c(C(=O)NS(=O)(=O)N3C5CCC3CC5)cc2F)CC4)CCN1C [Example 255, (R)-N-((7-azabicyclo[2.2.1]heptan-7-yl)sulfonyl)-2-(dimethylamino)-5-fluoro-4-(8-(3-(methoxymethyl)-4-methylpiperazin-1-yl)-7,10-dimethyl-5-oxo-1,3,4,5-tetrahydro-2H-chromeno[3,4-c]pyridine-3-carbonyl)benzamide]",1000 to 5000,1 to 10,J (>30),10 to 30
"COC[C@H]1CN(c2cc(Cl)c3c4c(c(=O)oc3c2C)CN(C(=O)c2cc(N(C)C)c(C(=O)NS(=O)(=O)N3C5CCC3CC5)cc2F)CC4)CCN1C [Example 316, (R)-N-((7-azabicyclo[2.2.1]heptan-7-yl)sulfonyl)-4-(10-chloro-8-(3-(methoxymethyl)-4-methylpiperazin-1-yl)-7-methyl-5-oxo-1,3,4,5-tetrahydro-2H-chromeno[3,4-c]pyridine-3-carbonyl)-2-(dimethylamino)-5-fluorobenzamide]",1000 to 5000,10 to 100,J (>30),30 to 100
"COC[C@H]1CN(c2cc(C)c3c4c(c(=O)oc3c2C)CN(C(=O)c2cc(F)c(C(=O)NS(=O)(=O)N3CCCC3)cc2C)CC4)CCN1C [Example 270, (R)-2-fluoro-4-(8-(3-(methoxymethyl)-4-methylpiperazin-1-yl)-7,10-dimethyl-5-oxo-1,3,4,5-tetrahydro-2H-chromeno[3,4-c]pyridine-3-carbonyl)-5-methyl-N-(pyrrolidin-1-ylsulfonyl)benzamide]",1000 to 5000,1 to 10,J (>30),1000 to 5000
"COC[C@H]1CN(c2cc(C)c3c4c(c(=O)oc3c2C)CN(C(=O)c2cc(N(C)C)c(C(=O)NS(=O)(=O)N3CCC[C@@H]3COC)cc2F)CC4)CCN1C [Example 311, 2-(dimethylamino)-5-fluoro-4-(8-((R)-3-(methoxymethyl)-4-methylpiperazin-1-yl)-7,10-dimethyl-5-oxo-1,3,4,5-tetrahydro-2H-chromeno[3,4-c]pyridine-3-carbonyl)-N-(((R)-2-(methoxymethyl)pyrrolidin-1-yl)sulfonyl)benzamide]",1000 to 5000,1 to 10,J (>30),1 to 10

# Continued, in another order:
IC50 [1] [nM],IC50 [2] [nM],MTHFD1/MTHFD2 IC50 ratio [2],Compound,IC50 (human CD4+ T cells) [nM]
100 to 1000,10 to 100,G (^ 3 to 9.0),"CCOc1cc(C(=O)N2CCc3c(c(=O)oc4c(C)c(N5CCN(C)[C@@H](COC)C5)cc(C)c34)C2)c(F)cc1C(=O)NS(=O)(=O)N(C1CC1)C1CC1 [Example 216, (R)-N-(N,N-dicyclopropylsulfamoyl)-2-ethoxy-5-fluoro-4-(8-(3-(methoxymethyl)-4-methylpiperazin-1-yl)-7,10-dimethyl-5-oxo-1,3,4,5-tetrahydro-2H-chromeno[3,4-c]pyridine-3-carbonyl)benzamide]",10 to 30
100 to 1000,1 to 10,J (>30),"COC[C@H]1CN(c2cc(C)c3c4c(c(=O)oc3c2C)CN(C(=O)c2cc(N(C)C)c(C(=O)NS(=O)(=O)N3C[C@@H]5C[C@H]3CO5)cc2F)CC4)CCN1C [Example 313, N-(((1S,4S)-2-oxa-5-azabicyclo[2.2.1]heptan-5-yl)sulfonyl)-2-(dimethylamino)-5-fluoro-4-(8-((R)-3-(methoxymethyl)-4-methylpiperazin-1-yl)-7,10-dimethyl-5-oxo-1,3,4,5-tetrahydro-2H-chromeno[3,4-c]pyridine-3-carbonyl)benzamide]",30 to 100
1000 to 5000,10 to 100,J (>30),"COC[C@H]1CN(c2cc(C)c3c4c(c(=O)oc3c2C)CN(C(=O)c2cc(N(C)C)c(C(=O)NS(=O)(=O)C3(C)CC3)cc2Cl)CC4)CCN1C [Example 151, (R)-5-chloro-2-(dimethylamino)-4-(8-(3-(methoxymethyl)-4-methylpiperazin-1-yl)-7,10-dimethyl-5-oxo-1,3,4,5-tetrahydro-2H-chromeno[3,4-c]pyridine-3-carbonyl)-N-((1-methylcyclopropyl)sulfonyl)benzamide]",100 to 1000
100 to 1000,1 to 10,H (>9.0 to 30),"COC[C@H]1CN(c2cc(C)c3c4c(c(=O)oc3c2C)CN(C(=O)c2cc(N(C)C)c(C(=O)NS(=O)(=O)N3CC[C@@H](F)C3)cc2F)CC4)CCN1C [Example 314, 2-(dimethylamino)-5-fluoro-N-(((R)-3-fluoropyrrolidin-1-yl)sulfonyl)-4-(8-((R)-3-(methoxymethyl)-4-methylpiperazin-1-yl)-7,10-dimethyl-5-oxo-1,3,4,5-tetrahydro-2H-chromeno[3,4-c]pyridine-3-carbonyl)benzamide]",1 to 10
100 to 1000,1 to 10,–,"COC[C@H]1CN(c2cc(Cl)c3c4c(c(=O)oc3c2C)CN(C(=O)c2cc(N(C)C)c(C(=O)NS(=O)(=O)N3CCCC3)cc2F)CC4)CCN1C [Example 247, (R)-4-(10-chloro-8-(3-(methoxymethyl)-4-methylpiperazin-1-yl)-7-methyl-5-oxo-1,3,4,5-tetrahydro-2H-chromeno[3,4-c]pyridine-3-carbonyl)-2-(dimethylamino)-5-fluoro-N-(pyrrolidin-1-ylsulfonyl)benzamide]",10 to 30
10 to 100,1 to 10,J (>30),"COC[C@H]1CN(c2cc(C)c3c4c(c(=O)oc3c2C)CN(C(=O)c2cc(OC3CC3)c(C(=O)NS(=O)(=O)N3CCCC3)cc2F)CC4)CCN1C [Example 263, (R)-2-cyclopropoxy-5-fluoro-4-(8-(3-(methoxymethyl)-4-methylpiperazin-1-yl)-7,10-dimethyl-5-oxo-1,3,4,5-tetrahydro-2H-chromeno[3,4-c]pyridine-3-carbonyl)-N-(pyrrolidin-1-ylsulfonyl)benzamide]",10 to 30
100 to 1000,1 to 10,J (>30),"CCOc1cc(C(=O)N2CCc3c(c(=O)oc4c(C)c(N5CCN(C)[C@@H](COC)C5)cc(Cl)c34)C2)c(F)cc1C(=O)NS(=O)(=O)N1CCCC1 [Example 259, (R)-4-(10-chloro-8-(3-(methoxymethyl)-4-methylpiperazin-1-yl)-7-methyl-5-oxo-1,3,4,5-tetrahydro-2H-chromeno[3,4-c]pyridine-3-carbonyl)-2-ethoxy-5-fluoro-N-(pyrrolidin-1-ylsulfonyl)benzamide]",30 to 100
10 to 100,10 to 100,F (<3),"COC[C@H]1CN(c2ccc3c4c(c(=O)oc3c2C)CN(C(=O)c2ccc(C(=O)NS(=O)(=O)C3(C)CC3)c(N3CCCC3)c2)CC4)CCN1C [Example 15, (R)-4-(8-(3-(methoxymethyl)-4-methylpiperazin-1-yl)-7-methyl-5-oxo-1,3,4,5-tetrahydro-2H-chromeno[3,4-c]pyridine-3-carbonyl)-N-((1-methylcyclopropyl)sulfonyl)-2-(pyrrolidin-1-yl)benzamide]",1 to 10
100 to 1000,10 to 100,H (>9.0 to 30),"COC[C@H]1CN(c2cc(C)c3c4c(c(=O)oc3c2C)CN(C(=O)c2cc(N(C)C)c(C(=O)NS(=O)(=O)N3CCC[C@H](OC)C3)cc2F)CC4)CCN1C [Example 281, 2-(dimethylamino)-5-fluoro-4-(8-((R)-3-(methoxymethyl)-4-methylpiperazin-1-yl)-7,10-dimethyl-5-oxo-1,3,4,5-tetrahydro-2H-chromeno[3,4-c]pyridine-3-carbonyl)-N-(((S)-3-methoxypiperidin-1-yl)sulfonyl)benzamide]",1 to 10
